In one experiment the target is Bcl-2 (Homo sapiens, UniProt P10415). Nature of the experiment: fluorescence-polarization (FP) binding assay, Bcl-2. As to conditions: means ± SD (n≥3). The source says:
BM-1197 ( Fig 1 ), was synthesized in a similar manner as described for BM-1074 [16]. We evaluated the binding affinities of BM-1197 to Bcl-2, Bcl-xL and Mcl-1 proteins using our optimized fluorescence-polarization (FP) binding assays.
Data are expressed as means ± SD (n≥3).

Experiment [1] concerns MCL1-deficient (MCL1−/−) MEF cells. Nature of the experiment: cell growth inhibition, WST assay, MCL1-deficient MEF. The experiment is classed as cell-based, mouse. The method, then:
(§1) All the SCLC cell lines were purchased from American Type Culture Collection (Manassas, VA) and cultured as recommended. All these cell lines were passaged fewer than 6 months after purchase. MCL1 knockout (MCL1^−/−) MEF cells were kindly provided by Dr. David Huang (The Walter and Eliza Hall Institute of Medical Research, Melbourne, Australia). Cell growth inhibition was evaluated by means of a WST-8 assay (Dojindo, Rockville, MD) as described previously. Mitochondrial membrane potential was determined by JC-1 staining using a JC-1 Mitochondrial Membrane Potential Assay kit (Cayman). Apoptosis analysis was performed using an Annexin V/propidium iodide (PI) apoptosis detection kit (Roche Applied Sciences, Indianapolis, IN).
(B) MCL1^−/− cells were treated with 100 nM of BM-1197 for 16 h and stained with Annexin V/PI for flow cytometry. […] They are given in the order upper left, upper right, lower left, lower right.

For the next experiment, the target named is T1, Bcl-xL (Mus musculus, UniProt Q64373).
T1 construct: endogenous in cells; host or cells: MEF MCL1-/- cells
Briefly: cellular thermal shift assay (CETSA), Bcl-xL. To be noted: MEF MCL1−/− cells. The class given is cell-based. As to the method: Drug-target engagement was assessed using CETSA as described by Molina et al.. Briefly, cells were treated with drugs for 1 h, then harvested, washed with PBS, and resuspended in PBS. The resuspended cells were freeze-thawed 4 times. The soluble fraction (lysate) was separated from cell debris by centrifugation at 20000×g for 20 minutes at 4°C and then analyzed by Western blots.
Drug-treated cells were heated at gradient temperature from 42°C to 62°C for 3 min then freeze-thawed 4 times. The soluble fractions of the lysed cells were analyzed by immunoblotting. (B) MEF MCL1^− ^/− cells were treated with drugs at the indicated doses for 1 h before collected for CETSA.

Another experiment deals with H146. Briefly: SCLC cell growth inhibition (WST-8), H146. The experiment is classed as cell-based. As to conditions: Homo sapiens. The method, then: as §1
Data are representative of two independent experiments.
(Tetrazolium dyes change colour on reduction, which living cells bring about.)

The test system of a further experiment is H187. Briefly: SCLC cell growth inhibition (WST-8), H187. The class given is cell-based. To be noted: Homo sapiens, NCI-H187; 96-h incubation, means ± SD (n = 3–6). As to the method: as §1
The subject of the next experiment is H889. Nature of the experiment: SCLC cell growth inhibition (WST-8), H889. The experiment is classed as cell-based. As to conditions: Homo sapiens, NCI-H889; 96-h incubation, means ± SD (n = 3–6). The method, then:
as §1

In a further experiment the test system is SW1271. Nature of the experiment: SCLC cell growth inhibition (WST-8), SW1271. The experiment is classed as cell-based. As to conditions: Homo sapiens, 96-h incubation, means ± SD (n = 3–6). The method, then:
as §1

In another experiment the test system is H82. Nature of the experiment: SCLC cell growth inhibition (WST-8), H82. To be noted: Homo sapiens, NCI-H82; 96-h incubation, means ± SD (n = 3–6). The class given is cell-based. The method, then:
as §1

A further experiment has as its system DMS273. Nature of the experiment: SCLC cell growth inhibition (WST-8), DMS273. The experiment is classed as cell-based. As to conditions: Homo sapiens, DMS-273; 96-h incubation, means ± SD (n = 3–6). As to the method: as §1
Experiment [2] has as its system BM-1197-insensitive SCLC cell lines. Nature of the experiment: MCL1 shRNA knockdown, growth inhibition by WST assay. The experiment is classed as cell-based, human. As to conditions: MCL1 shRNA 2 days, then drug 2 days. As to the method: ON-TARGETplus SMARTpools for mouse Bax and Bak and non-targeting negative control siRNAs were obtained from Dhamarcon. Transfection was performed using Lipofectamine RNAiMAX (Invitrogen). Lentiviral vector for scrambled and human MCL1 shRNA and lentivirus infection were described previously. Immunoblotting was performed using a published procedure. For immunoprecipitation assays, cells lysed with CHAPS buffer (150 mM NaCl, 10 mM HEPES [pH 7.4], 0.5% Chaps) or Triton buffer (150 mM NaCl, 10 mM HEPES [pH 7.4], 0.5% Triton X-100) supplemented with Complete protease inhibitors (Roche). Immunoprecipitation and immunoblot assays were performed with the indicated antibodies. Active Bax was detected by immunoprecipitation with the Bax 6A7 antibody, which recognizes only the conformationally changed Bax protein [27].
Figure 12 Effects of MCL1 knockdown on BM-1197-induced apoptosis. (A) Cells were transduced with lentiviral particles containing scrambled (SCR) or MCL1-specific shRNAs for 2 days, then treated with BM-1197 for 2 days. The growth-inhibitory activity of BM-1197 was assessed by WST assay. Data are representative of three independent experiments. (B) Cells were transduced with lentiviral particles containing scrambled (SCR) or MCL1-specific shRNAs for 2 days then treated with BM-1197 (100 nM) for 20 h before harvested for immunoblotting.

Where “and” joins values, the source holds several entries; their conditions need not be identical. Equal entries are not always repeated. Where two headings read alike, the source gives them in different places. Some results are limits rather than exact numbers.

Bcl-2, sequence (P10415 whole entry): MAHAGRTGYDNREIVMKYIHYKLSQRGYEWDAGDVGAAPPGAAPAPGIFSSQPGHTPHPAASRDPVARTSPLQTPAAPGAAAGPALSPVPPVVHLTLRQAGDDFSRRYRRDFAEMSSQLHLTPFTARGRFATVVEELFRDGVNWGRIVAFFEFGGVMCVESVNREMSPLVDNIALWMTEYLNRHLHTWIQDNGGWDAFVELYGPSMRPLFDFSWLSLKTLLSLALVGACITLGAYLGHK
T1 sequence (Q64373 whole entry): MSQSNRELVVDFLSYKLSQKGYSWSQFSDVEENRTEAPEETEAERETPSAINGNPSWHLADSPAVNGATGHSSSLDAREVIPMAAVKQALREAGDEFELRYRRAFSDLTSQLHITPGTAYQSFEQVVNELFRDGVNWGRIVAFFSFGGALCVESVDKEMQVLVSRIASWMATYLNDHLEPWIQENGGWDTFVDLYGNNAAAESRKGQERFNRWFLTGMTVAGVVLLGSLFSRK

Regarding `Cc1c(S(C)(=O)=O)c(-c2cc(F)cc(N3CCN(c4ccc(NS(=O)(=O)c5ccc(N[C@H](CCN6CCC(O)CC6)CSc6ccccc6)c(S(=O)(=O)C(F)(F)F)c5)cc4)CC3)c2)c(-c2ccc(Cl)cc2)n1C(C)C` [BM-1197], the IC50 turned out to be 3.5 ± 0.7 nM on Bcl-2; 5 ± 3 nM in [1] (Mus musculus, MEF, 72 h, 3 days, WST assay); 1.9 nM in the experiment on H146 (NCI-H146, 96 h, read-out: IC50 (1% FBS), H146, 4 days, WST assay, 1% FBS); 1.9 nM with H146 (NCI-H146, 96 h, read-out: IC50 (1% FBS+3% HSA), H146, 4 days, WST assay, 1% FBS+3% HSA); 2.6 nM in the experiment on H146 (NCI-H146, 96 h, read-out: IC50 (10% FBS), H146, 4 days, WST assay, 10% FBS); 4.8 nM with H146 (NCI-H146, 96 h, read-out: IC50 (50% FBS), H146, 4 days, WST assay, 50% FBS). Further, the IC50 with H146 (NCI-H146, 96-h incubation, means ± SD (n = 3–6), read-out: IC50 cell growth, H146) is 3 ± 2 nM; with H187 it was 31 ± 4 nM; in the experiment with H889, 82 ± 20 nM; with SW1271, 306 ± 116 nM; with H82 it was 698 ± 354 nM; in the experiment on DMS273 it was > 2000 nM. In addition, the Ki on Bcl-2 was < 1 nM and 0.7 nM. Further, the “times more potent than ABT-263 in inhibition of cell growth” value in experiment [1] (MCL1−/− cells) is on record as ~8 times. Besides, the “thermal stability of Bcl-xL protein” value at Bcl-xL (1 µM, 1 h) is “enhanced”. In addition, the “lowest concentration that efficiently stabilized BCL-xL protein” value on Bcl-xL (1 h treatment) stood at 16 nM. Further, the “insensitive cell lines in which depletion of MCL1 dramatically enhanced inhibitory activity” value in experiment [2] is given as 4 of 5.

What is called IC50 is the concentration that gives 50% inhibition. A word on the Ki: it is the dissociation constant of the complex between target and ligand, obtained from inhibition or displacement. A lower Ki goes with tighter binding.

(Values after PMC4047118, “BM-1197: A Novel and Specific Bcl-2/Bcl-xL Inhibitor Inducing Complete and Long-Lasting Tumor Regression In Vivo” (PLoS ONE, 2014).)
